The nature of series [1]: Dispersibility / sedimentation of active powder with quillaja powder in DI water (time-dependent trial). As to conditions: for Relative Dispersibilities without quillaja powder: FIGS. 1-6. The format is physicochemical. The method, then: This example sets forth compositions and methods for making compositions of one active ingredient with quillaja powder. Each of the compositions is prepared by mixing one active ingredient with quillaja powder at a fixed ratio of about 75:25, about 60:40, about 50:50, about 40:60, or about 25:75. This example also sets forth methods to test the dispersibilities of the resulting compositions.
• 1. Add 5 mL DI water to 15 mL disposable glass test tube • 2. Weight out Active ingredient (back weigh for accuracy) • a. For 100% active ingredient, weigh out close to the target amount, note the weight, then zero the balance (with active ingredient still on it) • b. Add active ingredient to test tube with DI water • c. Place mostly empty powder weight boat back onto scale and record actual weight added • d. For other mixtures of active ingredient and quillaja powder, perform similar but add to new weight boat to mix powders (instead of adding directly to test tube) • 3. Weigh out quillaja powder (back weigh for accuracy) • a. Weigh out close to target amount of quillaja, note the weight, then zero the balance (with quillaja still on it) • b. Add quillaja to mixture weight boat (with active) • c. Place mostly empty quillaja weigh boat back onto scale and record actual weight added • 4. Repeat for all ratios of powder mixtures below (dose-dependent study):
• 5. Mix powders together • 6. Add powder mixture to the test tube with DI water. Vortex for exactly 2 minutes and perform time-dependent study • 7. Let settle for 10 minutes then take picture/note observations such as degree of turbidity, dispersibility, any large solids, etc. • 8. After 30 minutes (total), take picture/note observations • 9. After 2 hours (total), take picture/note observations • 10. After 4 hours (total), take picture/note observations • 11. Take special note of the size of the solid “pellet” that settles out on the bottom • a. Try to measure its size (estimated) by taking the radius/diameter combined with the height
This example sets forth compositions of CoQ10 powder and quillaja powder at fixed ratios of 100:0, about 75:25, about 60:40, about 50:50, about 40:60, and about 25:75 respectively. As used herein in Example A2, CoQ10 powder is ubiquinone powder as CoQ10(ubiquinone) powder. The compositions have been prepared according to experimental procedures in Example 1A. A time-dependent trial of sedimentation rates of the compositions comprising ubiquinone powder and quillaja powder at different ratios in water was conducted at time points of 10 minutes, 30 minutes, 2 hours, and 4 hours are shown in FIG. 1. Regarding the test tubes in each of the pictures of FIG. 1, from right to left, the weight ratios of CoQ10(ubiquinone) powder to quillaja powder are in the order of 100:0, about 75:25, about 60:40, about 50:50, about 40:60, and about 25:75 respectively. […] Increasing extent of turbidity was indicative of the highest dispersibility and solubility.
This example sets forth comparisons of the dispersibilities for compositions of Examples A2-A7, which comprise various active ingredients mixed with quillaja powder at various fixed ratios. After comparing the results shown in FIGS. 1-6, the relative dispersibilities are as following: • a) Relative Dispersibilities without quillaja powder: Quercetin>Berberine>Resveratrol>Curcumin>DIM>CoQ10(ubiquinone) • b) Relative Dispersibilities with quillaja powder at time point of 30 minute or less: Quercetin>(Curcumin=Resveratrol)>(DIM=Berberine)>CoQ10(ubiquinone) • c) Relative Dispersibilities with quillaja powder at time point of 2 hours or more Quercetin>(DIM=Curcumin=Resveratrol)>Berberine>CoQ10(ubiquinone)

Series [2] in a line: Surface tension interaction by visual observation of glass smearing above the water level. Format: physicochemical. Here is the method:
This example sets forth comparisons of the surface tension interactions of the compositions of Example A2-A7. The surface tension interactions of the compositions of various active ingredients mixed with quillaja powder at various fixed ratios were specifically compared with those of the compositions of various active ingredients without quillaja powder. Surface tension interaction is determined by visual observation of glass smearing of active ingredient powders above the water level. • a) Relative surface tension interaction without quillaja powder: (CoQ10(ubiquinone)≥Curcumin)>(Resveratrol≥DIM)>(Quercetin≥Berberine) • b) Relative surface tension interaction with quillaja powder: […]

Series [3] can be described thus: Bioaccessibility of ubiquinol by simulated in vitro digestion. The format is in vitro ADME. As to conditions: HPLC of filtered supernatant. From the text: In some embodiments, methods of increasing the bioaccessibility and/or bioavailability of an active ingredient in a subject are provided. The active ingredient can be any active ingredients, such as, but not limited to, those described herein. In some embodiments, the methods comprise administering to the subject any of the compositions provided for herein. The administration can be by any method, such as those described herein. […] An increase in bioaccessibility can be determined by any suitable method. For example, bioaccessibility can be measured by simulated in vitro digestion. […] Without being bound to any particular method, in some embodiments, bioaccessibility is determined by mixing a sample (a composition) with a saliva solution and, optionally, mucin. […] The samples can then be analyzed by HPLC to determine the increase in bioaccessibility. Bioaccessibility can be calculated by dividing the amount of the at least one active ingredient measured by, for example HPLC, by the theoretical (or actual amount of ubiquinol in the sample)×100 to determine the percent bioaccessibility. […]
This example sets forth to test the effect of quillaja powder on bioaccessiblity of ubiquinol. Bioaccessibility of ubiquinol was measured by simulated in vitro digestion. […] Bioaccessibility (%)=(ubiquinol measured by HPLC/theoretical amount of ubiquinol in the sample)×100%.

The mark [4] stands for this setting: active:quillaja 100:0, DI water, 10 minutes, 30 minutes, 2 hours, 4 hours.

“Also recorded” adds a separate entry of the source. Read-outs that look alike come from different tables or passages of the source.

Regarding `COc1ccc2cc3[n+](cc2c1OC)CCc1cc2c(cc1-3)OCO2` [Berberine, berberine], the “dispersibility and solubility in water, tube without quillaja powder” value in series [1] (setting [4]) is listed as “complete separation”. Besides, in series [1], the “Relative Dispersibilities with quillaja powder at time point of 30 minute or less” value (from here on “Relative Dispersibilities … of 30 minute or less”) is “Quercetin>(Curcumin=Resveratrol)>(DIM=Berberine)>CoQ10(ubiquinone)”, the “Relative Dispersibilities with quillaja powder at time point of 2 hours or more” value (shortened to “Relative Dispersibilities … of 2 hours or more”) was “Quercetin>(DIM=Curcumin=Resveratrol)>Berberine>CoQ10(ubiquinone)” and the “Relative Dispersibilities without quillaja powder” value is recorded as “Quercetin>Berberine>Resveratrol>Curcumin>DIM>CoQ10(ubiquinone)”. For the same molecule, in series [2], the “Relative surface tension interaction without quillaja powder” value is “(CoQ10(ubiquinone)≥Curcumin)>(Resveratrol≥DIM)>(Quercetin≥Berberine)”. In addition, in series [2] (listed as berberine), the “Relative surface tension interaction without quillaja powder” value is on record as “Lowest surface tension”.
In the case of `COC1=C(OC)C(=O)C(C/C=C(\C)CC/C=C(\C)CC/C=C(\C)CC/C=C(\C)CC/C=C(\C)CC/C=C(\C)CC/C=C(\C)CC/C=C(\C)CC/C=C(\C)CCC=C(C)C)=C(C)C1=O` [CoQ10(ubiquinone), ubiquinone], in series [1], the “dispersibility and solubility in water, tube without quillaja powder” value is given as “complete separation”; the “Relative Dispersibilities … of 30 minute or less” value is reported as “Quercetin>(Curcumin=Resveratrol)>(DIM=Berberine)>CoQ10(ubiquinone)”; the “Relative Dispersibilities … of 2 hours or more” value is recorded as “Quercetin>(DIM=Curcumin=Resveratrol)>Berberine>CoQ10(ubiquinone)”; the “Relative Dispersibilities without quillaja powder” value is “Quercetin>Berberine>Resveratrol>Curcumin>DIM>CoQ10(ubiquinone)”. Further, in series [2], the “Relative surface tension interaction without quillaja powder” value is given as “(CoQ10(ubiquinone)≥Curcumin)>(Resveratrol≥DIM)>(Quercetin≥Berberine); also recorded: Highest surface tension”.
Turning to `COc1cc(/C=C/C(=O)CC(=O)/C=C/c2ccc(O)c(OC)c2)ccc1O` [Curcumin, curcumin], the “dispersibility and solubility in water, tube without quillaja powder” value in series [1] (setting [4]) was “complete separation”. Besides, in series [1], the “Relative Dispersibilities … of 30 minute or less” value is “Quercetin>(Curcumin=Resveratrol)>(DIM=Berberine)>CoQ10(ubiquinone)”, the “Relative Dispersibilities … of 2 hours or more” value is on record as “Quercetin>(DIM=Curcumin=Resveratrol)>Berberine>CoQ10(ubiquinone)” and the “Relative Dispersibilities without quillaja powder” value is listed as “Quercetin>Berberine>Resveratrol>Curcumin>DIM>CoQ10(ubiquinone)”. The “Relative surface tension interaction without quillaja powder” value in series [2] was “(CoQ10(ubiquinone)≥Curcumin)>(Resveratrol≥DIM)>(Quercetin≥Berberine)”. In series [2] (listed as curcumin), the “Relative surface tension interaction without quillaja powder” value is reported as “Highest surface tension”.
Turning to `O=c1c(O)c(-c2ccc(O)c(O)c2)oc2cc(O)cc(O)c12` [Quercetin, quercetin], in series [1], the “dispersibility and solubility in water, tube without quillaja powder” value is “complete separation”; the “Relative Dispersibilities … of 30 minute or less” value is listed as “Quercetin>(Curcumin=Resveratrol)>(DIM=Berberine)>CoQ10(ubiquinone)”; the “Relative Dispersibilities … of 2 hours or more” value is listed as “Quercetin>(DIM=Curcumin=Resveratrol)>Berberine>CoQ10(ubiquinone)”; the “Relative Dispersibilities without quillaja powder” value is “Quercetin>Berberine>Resveratrol>Curcumin>DIM>CoQ10(ubiquinone)”. Besides, the “Relative surface tension interaction without quillaja powder” value in series [2] is reported as “(CoQ10(ubiquinone)≥Curcumin)>(Resveratrol≥DIM)>(Quercetin≥Berberine)”. The “Relative surface tension interaction without quillaja powder” value in series [2] (listed as quercetin) is reported as “Lowest surface tension”.
Regarding `Oc1ccc(C=Cc2cc(O)cc(O)c2)cc1` [Resveratrol, resveratrol], the “dispersibility and solubility in water, tube without quillaja powder” value in series [1] (setting [4]) is recorded as “complete separation”. In series [1], the “Relative Dispersibilities … of 30 minute or less” value was “Quercetin>(Curcumin=Resveratrol)>(DIM=Berberine)>CoQ10(ubiquinone)”, the “Relative Dispersibilities … of 2 hours or more” value was “Quercetin>(DIM=Curcumin=Resveratrol)>Berberine>CoQ10(ubiquinone)” and the “Relative Dispersibilities without quillaja powder” value is “Quercetin>Berberine>Resveratrol>Curcumin>DIM>CoQ10(ubiquinone)”. In addition, the “Relative surface tension interaction without quillaja powder” value in series [2] is “(CoQ10(ubiquinone)≥Curcumin)>(Resveratrol≥DIM)>(Quercetin≥Berberine)”.
In turn, `COc1c(O)c(C)c(C/C=C(\C)CC/C=C(\C)CC/C=C(\C)CC/C=C(\C)CC/C=C(\C)CC/C=C(\C)CC/C=C(\C)CC/C=C(\C)CC/C=C(\C)CCC=C(C)C)c(O)c1OC` [sample A, ubiquinol] gave a bioaccessibility of ubiquinol in series [3] of 0.88%.
